Source: US8598114B2, “Antimicrobial compounds” (priority 2007, dated 2013)

Key:
[1] = test system: Trichophyton mentagrophytes; experiment: MIC, CLSI microbroth dilution (filamentous fungi); assay type: cell-based; set-up: unit not given beside the values; conditions: Trichophyton mentagrophytes - G.R. Micro collection
Procedure: (§1) M38-A Vol. 22 No. 16 Reference Method for Broth Dilution Antifungal Susceptibility Testing of Filamentous Fungi; Approved Standard.
(§2) Yeast and filamentous fungal MIC were performed in MOPS buffered RPMI 1640 medium (MOPS buffer obtained from Sigma Aldrich Ltd., RPMI 1640 obtained from Invitrogen Ltd, Paisley, Scotland). The yeast inocula were in the range 7.5×10^2-4×10^3 CFU/mL and the filamentous fungi approximately 8×10^3-1×10^5CFU/mL

[2] = test system: Trichophyton interdigitale; experiment: MIC, CLSI microbroth dilution (filamentous fungi); assay type: cell-based; set-up: unit not given beside the values; conditions: Trichophyton interdigitale - G.R. Micro collection
Procedure: as §1, §2

Aspergillus niger = experiment: MIC, CLSI microbroth dilution (filamentous fungi); assay type: cell-based; set-up: unit not given beside the values; conditions: Aspergillus niger - G.R. Micro collection
Procedure: as §1, §2

Streptococcus oralis = experiment: MIC, CLSI microbroth dilution (aerobic bacteria); assay type: cell-based; set-up: unit not given beside the values
From the text: (§3) Cation-adjusted Mueller-Hinton broth (Oxoid Ltd., Basingstoke, UK and Trek Diagnostic Systems Ltd., East Grinstead, UK) (supplemented with 5% laked horse blood for Streptococcus spp., Corynebacterium jeikeium and Listeria monocytogenes) was used for aerobic bacteria, with an initial inoculum of approximately 10^5 colony-forming units (CFU)/mL.

Streptococcus sanguis = experiment: MIC, CLSI microbroth dilution (aerobic bacteria); assay type: cell-based; set-up: unit not given beside the values
From the text: as §3

Enterobacter sp = experiment: MIC, CLSI microbroth dilution (aerobic bacteria); assay type: cell-based; set-up: unit not given beside the values
From the text: as §3

Streptococcus agalactiae = experiment: MIC, CLSI microbroth dilution (aerobic bacteria); assay type: cell-based; set-up: unit not given beside the values
From the text: as §3

Listeria monocytogenes = experiment: MIC, CLSI microbroth dilution (aerobic bacteria); assay type: cell-based; set-up: unit not given beside the values; conditions: Listeria monocytogenes - antibiotic-susceptible clinical isolate
From the text: as §3

Morganella morganii = experiment: MIC, CLSI microbroth dilution (aerobic bacteria); assay type: cell-based; set-up: unit not given beside the values; conditions: Morganella morganii - multi-drug resistant clinical isolate
From the text: as §3

Streptococcus bovis = experiment: MIC, CLSI microbroth dilution (aerobic bacteria); assay type: cell-based; set-up: unit not given beside the values
From the text: as §3

Shigella sp = experiment: MIC, CLSI microbroth dilution (aerobic bacteria); assay type: cell-based; set-up: unit not given beside the values; conditions: Shigella sp - antibiotic-susceptible clinical isolate
From the text: as §3

Group C Streptococcus = experiment: MIC, CLSI microbroth dilution (aerobic bacteria); assay type: cell-based; set-up: unit not given beside the values
From the text: as §3

Streptococcus pyogenes = experiment: MIC, CLSI microbroth dilution (aerobic bacteria); assay type: cell-based; set-up: unit not given beside the values
From the text: as §3

Streptococcus mitis = experiment: MIC, CLSI microbroth dilution (aerobic bacteria); assay type: cell-based; set-up: unit not given beside the values
From the text: as §3

[3] = test system: Staphylococcus saprophyticus; experiment: MIC, CLSI microbroth dilution (aerobic bacteria); assay type: cell-based; set-up: unit not given beside the values; conditions: Staphylococcus saprophyticus - antibiotic susceptible clinical isolate
From the text: as §3

Klebsiella aerogenes = experiment: MIC, CLSI microbroth dilution (aerobic bacteria); assay type: cell-based; set-up: unit not given beside the values
From the text: as §3

Moraxella catarrhalis = experiment: MIC, CLSI microbroth dilution (aerobic bacteria); assay type: cell-based; set-up: unit not given beside the values
From the text: as §3

Salmonella sp = experiment: MIC, CLSI microbroth dilution (aerobic bacteria); assay type: cell-based; set-up: unit not given beside the values
From the text: as §3

Streptococcus pneumoniae = experiment: MIC, CLSI microbroth dilution (aerobic bacteria); assay type: cell-based; set-up: unit not given beside the values
From the text: as §3

trypsin = experiment: in vitro; assay type: in vitro ADME; conditions: pH 8.6
Procedure: Measurements and Calculation of Peptide Half-Life
Each peptide was dissolved in a 0.1 M NH4HCO3 buffer (pH 6.5) to yield a final peptide concentration of 1 mg/ml. A trypsin solution was prepared by dissolving 1 mg of trypsin in 50 ml 0.1 M NH4HCO3 buffer (pH 8.2). For the stability determination, 250 μl freshly made trypsin solution and 250 μl peptide solution were incubated in 2 ml of 0.1 M NH4HCO3 buffer (pH 8.6) at 37° C. on a rocking table. Aliquots of 0.5 ml were sampled at different time intervals, diluted with 0.5 ml water:acetonitrile (60:40 v/v) containing 1% TFA and analysed by RP-HPLC as described above. Samples without trypsin addition taken at 0 h and after 20 h at 37° C. were used as negative controls. Integration of the peak area at 254 nm for samples taken during the first 5 hours of the assay was used to generate the τ1/2.

Structure (SMILES): N=C(N)NCCCC(N)C(=O)NC(Cc1ccc(-c2ccc3ccccc3c2)cc1)C(=O)NC(CCCNC(=N)N)C(=O)NCCc1ccccc1 (centres unmarked) [Compound 1]
- MIC [1]: 16
- MIC [2]: 8
- MIC (Aspergillus niger): 4
- MIC (Streptococcus oralis; Streptococcus oralis - antibiotic-susceptible clinical isolate): 64
- MIC (Streptococcus oralis; Streptococcus oralis - macrolide-resistant clinical isolate): 32
- MIC (Streptococcus sanguis; Streptococcus sanguis - antibiotic-susceptible clinical isolate): 64
- MIC (Streptococcus sanguis; Streptococcus sanguis - macrolide-resistant clinical isolate): 32
- MIC (Enterobacter sp; Enterobacter sp - antibiotic-susceptible clinical isolate): 32
- MIC (Enterobacter sp; Enterobacter sp - multi-drug resistant clinical isolate): 64
- MIC (Streptococcus agalactiae; Streptococcus agalactiae - antibiotic-susceptible clinical isolate): 16
- MIC (Streptococcus agalactiae; Streptococcus agalactiae - macrolide-resistant clinical isolate): 32
- MIC (Listeria monocytogenes): 32
- MIC (Morganella morganii): ≧128
- MIC (Streptococcus bovis; Streptococcus bovis - antibiotic-susceptible clinical isolate): 64
- MIC (Streptococcus bovis; Streptococcus bovis - macrolide-resistant clinical isolate): 8
- MIC (Shigella sp): 32
- MIC (Group C Streptococcus; Group C Streptococcus - antibiotic-susceptible clinical isolate): 32
- MIC (Group C Streptococcus; Group C Streptococcus - macrolide-resistant clinical isolate): 64
- MIC (Streptococcus pyogenes; Streptococcus pyogenes - Macrolide (M-type) resistance clinical isolate): 32
- MIC (Streptococcus pyogenes; Streptococcus pyogenes - Macrolide (MLS) resistant clinical isolate): 32
- MIC (Streptococcus mitis; Streptococcus mitis - antibiotic-susceptible clinical isolate): 64
- MIC (Streptococcus mitis; Streptococcus mitis - macrolide-resistant clinical isolate): ≧128
- MIC [3]: 1
- MIC (Klebsiella aerogenes; Klebsiella aerogenes - multi-drug resistant clinical isolate): 64
- MIC (Klebsiella aerogenes; Klebsiella aerogenes NCTC11228 - antibiotic-susceptible type strain): 32
- MIC (Moraxella catarrhalis; Moraxella catarrhalis - reduced fluoroquinolone susceptibility clinical): 8
- MIC (Moraxella catarrhalis; Moraxella catarrhalis - β-lactamase positive clinical isolate): 4
- MIC (Salmonella sp; Salmonella sp - antibiotic-susceptible clinical isolate): 16
- MIC (Salmonella sp; Salmonella sp - multi-drug resistant clinical isolate): 16
- MIC (Streptococcus pneumoniae; Streptococcus pneumoniae - ATCC 49619 antibiotic-susceptible control): 32
- MIC (Streptococcus pneumoniae; Streptococcus pneumoniae - multi-drug resistant clinical isolate): 64
- MIC (Streptococcus pneumoniae; Streptococcus pneumoniae - penicillin-resistant clinical isolate): 32
- MIC (Streptococcus pneumoniae; Streptococcus pneumoniae - penicillin-susceptible clinical isolate): 64
- MIC (Streptococcus pneumoniae; Streptococcus pneumoniae -penicillin-intermediate clinical isolate): 32
- half-life at 0.1 mg/ml (trypsin): > 24 h
